Data as given in patent US4994258A, “Gamma emitting, CCK-A antagonists for pancreatic imaging” (Merck & Co., Inc., priority 1990, dated 1991).

Assays:
[1] = mice; cited from earlier work
CCK-A receptors [2] = test system: CCK-A receptors; set-up: species or system rats; conditions: rat, in vivo, iv
Protocol: Rats under ketamine/acepromazine anesthesia were positioned for either anterior or posterior dynamic (128×128×16) images. A large-field-of-view gamma camera with a low energy, all purpose collimator, peaked for ^123 I, was utilized. Thirty one-minute images were acquired immediately post intravenous administration of 0.2 mCi of [^123 I]3(S)-1,3-dihydro-3-(4-iodobenzoylamino)-1-methyl -5-phenyl-2H-1,4-benzodiazepin-2-one. To enable visualization of the liver alone, an unblocked rat was injected with 0.125 mCi of ^99m Tc-albumin colloid. A static one-minute image (128×128×16) was obtained then, without moving the animal, the dose of [^123 I]3(S)-1,3-dihydro-3-(4-iodobenzoylamino) -1-methyl-5-phenyl-2H-1,4-benzodiazepin-2-one was injected and imaging proceeded as described. Rabbits and African green monkeys under ketamine/ xylazine anesthesia were positioned for an anterior view and imaged as the rats were after an intravenous injection of 0.5 mCi of [^123 I] (S)-1,3-dihydro-3-(4-iodobenzoylamino) -1-methyl-5-phenyl-2H-1,4-benzodiazepin-2-one for rabbits, and 1.3 mCi for monkeys.
All blocked studies utilized a coinjection of 1 mg/kg of (R)-N-(2,3-dihydro-1-methyl-2-oxo-5-phenyl-1H-1, 4-benzodiazepin-3-yl)-1H-indole-2-carboxamide. […] Reduced data were expressed as count rates in regions of interest (ROI) as a function of time.

[3] = In vivo distribution necropsy after i.v. injection; set-up: species or system rats
Protocol: (§1) Animals were euthanized at various times (15 min to 2 hr), and organs of interest removed for assay. Biopsy samples were counted in an autogamma counter (50% counting efficiency) for ^123 I labeled radioligand. For the tritiated radioligand, in rats and rabbits, 10 to 50 mg samples of pancreas and, in rats, several regions of CNS (cortex, interpeduncular nucleus, and substantial nigra) were solubilized in protosol® (New England Nuclear). Liquid scintillation cocktail was added and the samples were dark adapted for 16 hours, then counted in a liquid scintillation counter with automatic quench correction. Results were the average of at least five animals and were expressed as % dose/g (wet weight).

[4] = In vivo distribution after coinjection of unlabeled carboxamide (receptor-mediated binding); set-up: species or system rats; conditions: rat, iv
Protocol: (§2) Animals were euthanized at various times (15 min to 2 hr), and organs of interest removed for assay. […] […] Liquid scintillation cocktail was added and the samples were dark adapted for 16 hours, then counted in a liquid scintillation counter with automatic quench correction. Results were the average of at least five animals and were expressed as % dose/g (wet weight).

CCK-A receptors [5] = experiment: as above; set-up: species or system rats
Protocol: as §2

[6] = molecular target: T1, CCK-A receptor from rat pancreas (Rattus norvegicus, UniProt P30551); experiment: In vitro binding assay, saturation studies with radioligand, rat pancreas
T1 construct: Pancreatae were removed from either rats or rabbits immediately after euthanasia; from tissue; host or cells: rat pancreas homogenate
T1 sequence (P30551 1-444): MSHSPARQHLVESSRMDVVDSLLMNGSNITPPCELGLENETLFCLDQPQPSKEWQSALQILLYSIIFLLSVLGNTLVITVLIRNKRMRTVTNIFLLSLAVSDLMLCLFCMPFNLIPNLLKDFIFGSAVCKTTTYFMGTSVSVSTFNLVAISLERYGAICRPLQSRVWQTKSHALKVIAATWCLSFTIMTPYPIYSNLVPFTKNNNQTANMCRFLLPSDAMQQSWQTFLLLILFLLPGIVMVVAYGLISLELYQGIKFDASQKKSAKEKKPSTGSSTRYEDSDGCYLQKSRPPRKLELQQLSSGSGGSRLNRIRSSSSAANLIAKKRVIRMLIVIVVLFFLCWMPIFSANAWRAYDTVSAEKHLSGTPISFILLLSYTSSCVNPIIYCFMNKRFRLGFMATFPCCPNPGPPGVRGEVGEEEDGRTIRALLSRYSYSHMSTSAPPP
Protocol: Pancreatae were removed from either rats or rabbits immediately after euthanasia and placed in ice-cold buffer (50 mM Tris·HCl (pH 7.4), 5 mM MgCl2, 5 mM DTT, 2 mg/ml BSA and 0.14 mg/ml bacitracin). The tissue (0.5 g pancreas) was homogenized in 200 ml of the ice-cold Tris buffer. Aliquots (0.1 ml) were added to various concentrations of radioligand (5 ml) in Tris buffer, incubated for 60 min at ambient temperatures, and filtered over GC-filters. After washing with ice cold Tris buffer (2×5 ml), the filters were air dried and counted in 10 ml of liquid scintillation cocktail (PCS, Amersham) in a Beckman LSC-5000. Data were converted to Molar concentrations and analyzed via SCAFIT, and data are presented by the method of Scatchard. The specific activity of the radioiodinated product was determined as that which provided the same concentration of receptor as obtained with the tritiated ligand.

[7] = In vivo distribution of tritiated radioligand in pancreas; conditions: in vivo, iv
Protocol: as §1

CCK-A receptors [8] = experiment: as above; conditions: pancreas, tritiated radioligand
Protocol: as §1

[9] = cited from earlier work
CCK-A receptors [10] = conditions: mice, ^3 H and ^11 C labeled, high specific activity, 4 hours post intravenous injection; cited from earlier work

Cc1cc([131I])cc(CN(C)CCCN(C)C)c1O [[^131 I]HIPDM, [^131 I]N, N, N'-trimethyl-N'-(2-hydroxy-3-methyl-5-iodobenzyl)-1,3-propanediamine]
localization in the pancreas [1]: localizes in the pancreas

CN1C(=O)[C@@H](NC(=O)c2ccc([123I])cc2)N=C(c2ccccc2)c2ccccc21 [[^123 I]3(S)-1,3-Dihydro-3-(4-iodobenzoylamino)-1-methyl-5-phenyl-2 H-1,4-benzodiazepin-2-one]
localization in the pancreas (imaging and biopsied samples) (CCK-A receptors [2]): did localize in the pancreas by a receptor-mediated mechanism | tissue uptake at 0.5 h ([3]; rat, blood, iv, 10 uCi, blood, 30 min post-i.v. injection of 10 μCi, 95% confidence intervals (Table 4), read-out: % DOSE/GRAM, Blood): 0.307 ± 0.051 %ID/g | tissue uptake at 0.5 h ([3]; rat, descending colon, iv, 10 uCi, descending colon, 30 min post-i.v. injection of 10 μCi, 95% confidence intervals (Table 4), read-out: % DOSE/GRAM, Descending Colon): 0.418 ± 0.073 %ID/g | tissue uptake at 0.5 h ([3]; rat, liver, iv, 10 uCi, liver, 30 min post-i.v. injection of 10 μCi, 95% confidence intervals (Table 4), read-out: % DOSE/GRAM, Liver): 1.96 ± 0.56 %ID/g | tissue uptake at 0.5 h ([3]; rat, muscle, iv, 10 uCi, muscle, 30 min post-i.v. injection of 10 μCi, 95% confidence intervals (Table 4), read-out: % DOSE/GRAM, Muscle): 0.319 ± 0.086 %ID/g | tissue uptake at 0.25 h ([3]; rat, pancreas, iv, 10 uCi, pancreas, 15 min, i.v. injection, error range 95% confidence intervals (Table 2), read-out: % DOSE/GRAM in rat pancreas): 2.07 ± 0.46 %ID/g | tissue uptake at 0.5 h ([3]; rat, pancreas, iv, 10 uCi, pancreas, 30 min, i.v. injection, error range 95% confidence intervals (Table 2), read-out: % DOSE/GRAM in rat pancreas): 1.9 ± 0.71 %ID/g | tissue uptake at 0.5 h ([3]; rat, pancreas, iv, 10 uCi, pancreas, 30 min post-i.v. injection of 10 μCi, 95% confidence intervals (Table 4), read-out: % DOSE/GRAM, Pancreas): 2.54 ± 0.93 %ID/g | tissue uptake at 1 h ([3]; rat, pancreas, iv, 10 uCi, pancreas, 60 min, i.v. injection, error range 95% confidence intervals (Table 2), read-out: % DOSE/GRAM in rat pancreas): 1.14 ± 0.13 %ID/g | tissue uptake at 0.5 h ([3]; rat, pyloric sphincter, iv, 10 uCi, P. Sphincter (pyloric), 30 min post-i.v. injection of 10 μCi, 95% confidence intervals (Table 4), read-out: % DOSE/GRAM, P. Sphincter): 1.25 ± 0.33 %ID/g | tissue uptake at 0.5 h ([3]; rat, sigmoidal colon, iv, 10 uCi, sigmoidal colon, 30 min post-i.v. injection of 10 μCi, 95% confidence intervals (Table 4), read-out: % DOSE/GRAM, Sigmoidal Colon): 0.5 ± 0.13 %ID/g | tissue uptake at 0.5 h ([3]; rat, transverse colon, iv, 10 uCi, transverse colon, 30 min post-i.v. injection of 10 μCi, 95% confidence intervals (Table 4), read-out: % DOSE/GRAM, Transverse Colon): 0.5 ± 0.18 %ID/g | ratio of activity in the pancreas to that in the blood and liver ([3]; rats): suggests sufficient localization to provide in vivo images of the pancreas | tissue uptake at 0.5 h ([4]; blood, 0.4 mg/kg, blood, 30 min post-i.v. coinjection of 10 μCi with 0.4 mg/kg (R)-indole-2-carboxamide, 95% confidence intervals (Table 5), read-out: % DOSE/GRAM, Blood, coinjection): 0.236 ± 0.03 %ID/g | tissue uptake at 0.5 h ([4]; P. Sphincter (pyloric), 30 min post-i.v. coinjection of 10 μCi with 0.4 mg/kg (R)-indole-2-carboxamide, 95% confidence intervals (Table 5), read-out: % DOSE/GRAM, P. Sphincter, coinjection): 0.705 ± 0.19 %ID/g | tissue uptake at 0.5 h ([4]; descending colon, 30 min post-i.v. coinjection of 10 μCi with 0.4 mg/kg (R)-indole-2-carboxamide, 95% confidence intervals (Table 5), read-out: % DOSE/GRAM, Descending Colon, coinjection): 0.434 ± 0.12 %ID/g | tissue uptake at 0.5 h ([4]; sigmoidal colon, 30 min post-i.v. coinjection of 10 μCi with 0.4 mg/kg (R)-indole-2-carboxamide, 95% confidence intervals (Table 5), read-out: % DOSE/GRAM, Sigmoidal Colon, coinjection): 0.6 ± 0.47 %ID/g | tissue uptake at 0.5 h ([4]; transverse colon, 30 min post-i.v. coinjection of 10 μCi with 0.4 mg/kg (R)-indole-2-carboxamide, 95% confidence intervals (Table 5), read-out: % DOSE/GRAM, Transverse Colon, coinjection): 0.384 ± 0.06 %ID/g | tissue uptake at 0.5 h ([4]; liver, 0.4 mg/kg, liver, 30 min post-i.v. coinjection of 10 μCi with 0.4 mg/kg (R)-indole-2-carboxamide, 95% confidence intervals (Table 5), read-out: % DOSE/GRAM, Liver, coinjection): 1.69 ± 0.39 %ID/g | tissue uptake at 0.5 h ([4]; muscle, 0.4 mg/kg, muscle, 30 min post-i.v. coinjection of 10 μCi with 0.4 mg/kg (R)-indole-2-carboxamide, 95% confidence intervals (Table 5), read-out: % DOSE/GRAM, Muscle, coinjection): 0.271 ± 0.04 %ID/g | tissue uptake at 0.25 h ([4]; pancreas, 0.4 mg/kg, pancreas, 15 min, i.v. coinjection with 0.4 mg/kg (R)-indole-2-carboxamide, 95% confidence intervals (Table 3), read-out: % DOSE/GRAM in rat pancreas, coinjection): 0.574 ± 0.065 %ID/g | tissue uptake at 0.5 h ([4]; pancreas, 0.4 mg/kg, pancreas, 30 min, i.v. coinjection with 0.4 mg/kg (R)-indole-2-carboxamide, 95% confidence intervals (Table 3), read-out: % DOSE/GRAM in rat pancreas, coinjection): 0.727 ± 0.18 %ID/g | tissue uptake at 0.5 h ([4]; pancreas, 0.4 mg/kg, pancreas, 30 min post-i.v. coinjection of 10 μCi with 0.4 mg/kg (R)-indole-2-carboxamide, 95% confidence intervals (Table 5), read-out: % DOSE/GRAM, Pancreas, coinjection): 0.9 ± 0.22 %ID/g | tissue uptake at 1 h ([4]; pancreas, 0.4 mg/kg, pancreas, 60 min, i.v. coinjection with 0.4 mg/kg (R)-indole-2-carboxamide, 95% confidence intervals (Table 3), read-out: % DOSE/GRAM in rat pancreas, coinjection): 0.472 ± 0.085 %ID/g | specific localization in the region of the pyloric sphincter (CCK-A receptors [5]; rats): specific localization is obtained in the region of the pyloric sphincter | blockade of localization in the duodenum and colon (CCK-A receptors [5]; rats, duodenum and colon): significant blockade of localization was not demonstrated | affinity for the CCK-A receptor relative to [^3 H](R)-N-(2,3 dihydro-1-methyl-2-oxo-5-phenyl-1H-1,4-benzodiazepin-3-yl)-1H-indole-2-carboxamide (fold lower) [6]: 3 -fold lower

CN1C(=O)C(NC(=O)c2cc3ccccc3[nH]2)N=C(c2ccccc2)c2ccccc21 (stereo in doubt) [[^3 H](R)-N-(2,3-dihydro-1-methyl-2-oxo-5-phenyl-1H-1,4-benzodiazepin-3-yl)-1H-indole-2-carboxamide]
tissue uptake ([7]; 1 mg/kg): 0.25 %ID/g | tissue uptake ([7]; 10 uCi): 2.1 %ID/g | receptor-mediated part of localization in the pancreas (CCK-A receptors [8]): 90%

C[75Se]CC[C@H](N)C(=O)O [^75 Se-selenomethionine]
biological clearance ([9]; in vivo): slow biological clearance | tracer localizing in the pancreas ([9]; in vivo): 5-7% | uptake in adjacent organs ([9]; primarily the liver): high uptake in adjacent organs, primarily the liver

CN1C(=O)[C@@H](NC(=O)c2cc3ccccc3[nH]2)N=C(c2ccccc2)c2ccccc21 [N-(2,3 Dihydro-1-methyl-2-oxo-5-phenyl-1H-1,4-benzodiazepine-3-yl) -1H-indole-2-carboxamide]
localization in the pancreas (CCK-A receptors [10]): 76 % dose/gram

CN1C(=O)[C@H](NC(=O)c2cc3ccccc3[nH]2)N=C(c2ccccc2)c2ccccc21 [(R)-N-(2,3-dihydro-1-methyl-2-oxo-5-phenyl-1H-1,4-benzodiazepin-3-yl) -1H-indole-2-carboxamide, reference compound]
reduction of localization (of the [^123 I] radioligand in rat pancreas) by coinjection (CCK-A receptors [5]; coinjection 0.4 mg/kg, rat pancreas (Table 3)): 60-70%
